Test results reported in ChEMBL document CHEMBL4196088, “Induction of cell killing and autophagy by amphiphilic pyrrolidine derivatives on human pancreatic cancer cells” (Eur J Med Chem, 2018).
Activity calls are given as the source filed them. The calls are words filed in the database; no cut-off is given here.

Columns and labels:
[1] = system: MIA PaCa-2; experiment: Induction of apoptosis in human MIAPaCa2 cells assessed as necrotic cells at 20 uM after 48 hrs by Annexin V-FITC/propidium iodide staining based flow cytometry (reference value: 0.63%); type: functional
[2] = system: PANC-1; experiment: Induction of apoptosis in human PANC1 cells assessed as accumulation at sub-G0/G1 phase at 10 uM after 48 hrs by propidium iodide staining based flow cytometry (reference value: 0.2 to 2.9%); type: functional
[3] = system: PK9; experiment: Induction of apoptosis in human PK9 cells assessed as accumulation at sub-G0/G1 phase at 10 uM after 24 hrs by propidium iodide staining based flow cytometry (reference value: 2.2%); type: functional
[4] = system: PK9; experiment: Induction of apoptosis in human PK9 cells assessed as accumulation at sub-G0/G1 phase at 10 uM after 48 hrs by propidium iodide staining based flow cytometry (reference value: 3.8%); type: functional
[5] = system: MIA PaCa-2; experiment: Induction of apoptosis in human MIAPaCa2 cells assessed as live cells at 20 uM after 24 hrs by Annexin V-FITC/propidium iodide staining based flow cytometry (reference value: 86.79%); type: functional
[6] = system: BXPC-3; experiment: Induction of apoptosis in human BxPC3 cells assessed as accumulation at sub-G0/G1 phase at 20 uM after 24 hrs by propidium iodide staining based flow cytometry (reference value: 2.3%); type: functional
[7] = system: Fibroblast; experiment: Induction of apoptosis in human primary fibroblasts assessed as accumulation at sub-G0/G1 phase at 10 uM after 72 hrs by propidium iodide staining based flow cytometry (reference value: 6.7%); type: cell-based
[8] = system: BXPC-3; experiment: Induction of apoptosis in human BxPC3 cells assessed as accumulation at sub-G0/G1 phase harboring pSFFV-Bcl-XL at 20 uM after 24 hrs by propidium iodide staining based flow cytometry (reference value: 1.2%); type: functional
[9] = system: BXPC-3; experiment: Induction of apoptosis in human BxPC3 cells harboring pSFFV-Bcl-XL assessed as accumulation at sub-G0/G1 phase at 10 uM after 72 hrs by propidium iodide staining based flow cytometry (reference value: 2%); type: functional
[10] = system: PK9; experiment: Induction of apoptosis in human PK9 cells assessed as accumulation at sub-G0/G1 phase at 20 uM after 72 hrs by propidium iodide staining based flow cytometry (reference value: 4%); type: functional
[11] = system: PANC-1; experiment: Induction of apoptosis in human PANC1 cells assessed as accumulation at sub-G0/G1 phase at 10 uM after 72 hrs by propidium iodide staining based flow cytometry (reference value: 1.6 to 3.2%); type: functional
[12] = system: Fibroblast; experiment: Induction of apoptosis in human primary fibroblasts assessed as accumulation at sub-G0/G1 phase at 10 uM after 48 hrs by propidium iodide staining based flow cytometry (reference value: 6.1%); type: cell-based
[13] = system: BXPC-3; experiment: Induction of apoptosis in human BxPC3 cells harboring pSFFV-Bcl-XL assessed as accumulation at sub-G0/G1 phase at 10 uM after 24 hrs by propidium iodide staining based flow cytometry (reference value: 1.5%); type: functional
[14] = system: BXPC-3; experiment: Induction of apoptosis in human BxPC3 cells harboring pSFFV-Bcl-XL assessed as accumulation at sub-G0/G1 phase at 10 uM after 48 hrs by propidium iodide staining based flow cytometry (reference value: 1.9%); type: functional
[15] = system: Fibroblast; experiment: Induction of apoptosis in human primary fibroblasts at 20 uM after 24 hrs by propidium iodide staining based flow cytometry (reference value: 4.8%); type: cell-based
[16] = system: BXPC-3; experiment: Induction of apoptosis in human BxPC3 cells assessed as accumulation at sub-G0/G1 phase at 10 uM after 72 hrs by propidium iodide staining based flow cytometry (reference value: 3.4%); type: functional
[17] = system: BXPC-3; experiment: Induction of apoptosis in human BxPC3 cells assessed as accumulation at sub-G0/G1 phase at 20 uM after 48 hrs by propidium iodide staining based flow cytometry (reference value: 2.8%); type: functional
[18] = system: BXPC-3; experiment: Induction of autophagy in human BxPC3 cells assessed as increase in LC3-2 protein expression at 20 uM after 15 to 48 hrs by Western blot analysis; type: functional, cell-based
[19] = system: BXPC-3; experiment: Induction of apoptosis in human BxPC3 cells assessed as increase in cleaved PARP protein expression at 20 uM after 15 to 48 hrs by Western blot analysis; type: functional, cell-based
[20] = system: BXPC-3; experiment: Induction of apoptosis in human BxPC3 cells assessed as accumulation at sub-G0/G1 phase at 10 uM after 24 hrs by propidium iodide staining based flow cytometry (reference value: 1.8%); type: functional
[21] = system: MIA PaCa-2; experiment: Induction of apoptosis in human MIAPaCa2 cells assessed as increase in cleaved PARP protein expression at 20 uM after 15 to 48 hrs by Western blot analysis; type: functional, cell-based
[22] = system: PANC-1; experiment: Induction of apoptosis in human PANC1 cells assessed as accumulation at sub-G0/G1 phase at 20 uM after 24 hrs by propidium iodide staining based flow cytometry (reference value: 0.6 to 0.7%); type: functional
[23] = system: BXPC-3; experiment: Induction of apoptosis in human BxPC3 cells assessed as accumulation at sub-G0/G1 phase harboring pSFFV-Bcl-XL at 20 uM after 48 hrs by propidium iodide staining based flow cytometry (reference value: 1.3%); type: functional
[24] = Induction of apoptosis in HPNE cells assessed as accumulation at sub-G0/G1 phase at 10 uM after 48 hrs by propidium iodide staining based flow cytometry (reference value: 0.7%); type: cell-based; settings: human
[25] = system: BXPC-3; experiment: Induction of apoptosis in human BxPC3 cells assessed as accumulation at sub-G0/G1 phase at 20 uM after 24 to 48 hrs in presence of caspase inhibitor zVAD-fmk by propidium iodide staining based flow cytometry; type: functional, cell-based
[26] = system: MIA PaCa-2; experiment: Induction of apoptosis in human MIAPaCa2 cells assessed as late apoptotic cells at 20 uM after 24 hrs by Annexin V-FITC/propidium iodide staining based flow cytometry (reference value: 7.4%); type: functional
[27] = system: PK9; experiment: Induction of apoptosis in human PK9 cells assessed as accumulation at sub-G0/G1 phase at 20 uM after 24 hrs by propidium iodide staining based flow cytometry (reference value: 2.2%); type: functional
[28] = system: MIA PaCa-2; experiment: Induction of apoptosis in human MIAPaCa2 cells assessed as early apoptotic cells at 20 uM after 24 hrs by Annexin V-FITC/propidium iodide staining based flow cytometry (reference value: 5.16%); type: functional
[29] = system: MIA PaCa-2; experiment: Induction of autophagy in human MIAPaCa2 cells assessed as increase in LC3-2 protein expression at 20 uM after 15 to 48 hrs by Western blot analysis; type: functional, cell-based
[30] = Induction of apoptosis in HPNE cells assessed as accumulation at sub-G0/G1 phase at 20 uM after 72 hrs by propidium iodide staining based flow cytometry (reference value: 6.6%); type: cell-based; settings: human
[31] = system: BXPC-3; experiment: Induction of apoptosis in human BxPC3 cells assessed as accumulation at sub-G0/G1 phase at 20 uM after 72 hrs by propidium iodide staining based flow cytometry (reference value: 3.4%); type: functional
[32] = system: PANC-1; experiment: Induction of apoptosis in human PANC1 cells assessed as accumulation at sub-G0/G1 phase at 10 uM after 24 hrs by propidium iodide staining based flow cytometry (reference value: 0.6 to 0.7%); type: functional
[33] = system: MIA PaCa-2; experiment: Induction of apoptosis in human MIAPaCa2 cells assessed as late apoptotic cells at 20 uM after 48 hrs by Annexin V-FITC/propidium iodide staining based flow cytometry (reference value: 7.4%); type: functional

CCCCCCCCCCCCCCCCCCOCC(COP(=O)([O-])OCC[N+](C)(C)C)OC (stereo unspecified) [EDELFOSINE]
Activity [1]: 1.79%
Activity [2]: 11.5%
Activity [3]: 3.8%
Activity [4]: 8%
Activity [5]: 11.51%
Activity [6]: 16.8%
Activity [7]: 8.7%
Activity [8]: 3%
Activity [9]: 2.6%
Activity [10]: 15.6%
Activity [11]: 15.8%
Activity [12]: 7.2%
Activity [13]: 1.8%
Activity [14]: 3.7%
Activity [15]: 7.3%
Activity [16]: 24.3%
Activity [17]: 28.9%
Activity [18]: Active
Activity [19]: Active
Activity [20]: 14.2%
Activity [21]: Active
Activity [22]: 8.46%
Activity [23]: 5%
Activity [24]: 3.5%
Activity [25]: inactive
Activity [26]: 52.52%
Activity [27]: 4.8%
Activity [28]: 28.49%
Activity [29]: Active
Activity [30]: 8.2%
Activity [31]: 39.2%
Activity [32]: 3.2%
Activity [33]: 45.92%

CCCCCC/C=C\CCCCCCCCOC[C@H]1NC[C@H](O)[C@@H]1O
Activity [1]: 3.44%
Activity [2]: 7.1%
Activity [3]: 3.8%
Activity [4]: 6.1%
Activity [5]: 76.71%
Activity [6]: 15.8%
Activity [7]: 9.5%
Activity [8]: 2.8%
Activity [9]: 4.1%
Activity [10]: 28.6%
Activity [11]: 18.6%
Activity [12]: 8.7%
Activity [13]: 2%
Activity [14]: 3.7%
Activity [15]: 9.2%
Activity [16]: 20.8%
Activity [17]: 33.7%
Activity [18]: Active
Activity [19]: Active
Activity [20]: 9.6%
Activity [21]: Active
Activity [22]: 5.3%
Activity [23]: 6.7%
Activity [24]: 30.8%
Activity [25]: inactive
Activity [26]: 10.68%
Activity [27]: 10.1%
Activity [28]: 11.88%
Activity [29]: Active
Activity [30]: 81.7%
Activity [31]: 46.8%
Activity [32]: 6.7%
Activity [33]: 44.69%
